Data published in publication PMC7156458, “Synthetic biology based construction of biological activity-related library of fungal decalin-containing diterpenoid pyrones” (Nature Communications, 2020).

What was measured:
Test in all cases: cells
Set-up in all cases: species or system JFCR39 human cancer cell lines; JFCR39 panel growth inhibition, sulforhodamine B total protein after 48 h
[1] = system: OVCAR-4; settings: Homo sapiens, OVCAR-4, 48 h
Outline: (§1)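 Human cancer lines of the JFCR39 panel grown in RPMI-1640 with 5% FBS at 37°C, 5% CO2. Total cellular protein measured by sulforhodamine B after 48 hours of drug exposure; GI50 from duplicate assays.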

[2] = system: U251; settings: Homo sapiens, U-251, 48 h
Outline: as §1

[3] = system: SK-OV-3; settings: Homo sapiens, SK-OV-3, 48 h
Outline: as §1

[4] = system: NCI-H23; settings: Homo sapiens, NCI-H23, 48 h
Outline: as §1

[5] = system: St-4; settings: Homo sapiens, St-4, 48 h
Outline: as §1

[6] = system: HCT-15; settings: for GI50: Homo sapiens, HCT-15, 48 h
Outline: as §1

[7] = system: DMS273; settings: for GI50: Homo sapiens, DMS-273, 48 h
Outline: as §1

[8] = system: BSY-1; settings: for GI50: BSY-1, 48 h
Outline: as §1

[9] = system: SF-539; settings: Homo sapiens, SF-539, 48 h
Outline: as §1

[10] = system: NCI-H460; settings: for GI50: Homo sapiens, NCI-H460, 48 h
Outline: as §1

[11] = system: SF-268; settings: Homo sapiens, SF-268, 48 h
Outline: as §1

[12] = system: MCF-7; settings: Homo sapiens, MCF7, 48 h
Outline: as §1

[13] = system: NCI-H522; settings: Homo sapiens, NCI-H522, 48 h
Outline: as §1

[14] = system: SNB-75; settings: Homo sapiens, SNB-75, 48 h
Outline: as §1

[15] = system: ACHN; settings: 48 h; for GI50: Homo sapiens, ACHN
Outline: as §1

[16] = system: DMS114; settings: for GI50: Homo sapiens, DMS-114, 48 h
Outline: as §1

[17] = system: OVCAR-5; settings: Homo sapiens, OVCAR-5, 48 h
Outline: as §1

[18] = system: SNB-78; settings: Homo sapiens, SNB-78, 48 h
Outline: as §1

[19] = system: DU-145; settings: Homo sapiens, DU-145, 48 h
Outline: as §1

[20] = system: HCC2998; settings: Homo sapiens, HCC 2998, 48 h
Outline: as §1

[21] = system: HT-29; settings: Homo sapiens, HT-29, 48 h
Outline: as §1

[22] = 48 h, inhibitor, Log GI50, 48 h

Row | SMILES | GI50 [1] | GI50 [2] | GI50 [3] | GI50 [4] | GI50 [5] | GI50 [6] | GI50 [7] | GI50 [8] | GI50 [9] | GI50 [10] | GI50 [11] | GI50 [13] | GI50 [14] | GI50 [15] | GI50 [16] | GI50 [17] | GI50 [18] | GI50 [19] | GI50 [20] | GI50 [21] | other results
1 | C=C1CCC2C(C)(CC(=O)C=C(C)C)C(O)CCC2(C)C1Cc1c(O)c(C)c(C)oc1=O (centres unmarked) [Compound 7] | 35.8 µM | 95.5 µM | 60.8 µM | 13.2 µM | 69.2 µM | 55.6 µM | 14.1 µM | 37 µM | 61.4 µM | 11.6 µM | 77.8 µM |  |  |  |  |  |  |  |  |  | GI50 [12]: 22.6 µM
2 | C=C1CC[C@@H]2[C@](C)(CC[C@H]3O[C@H](C=C(C)C)C[C@@]23C)[C@@H]1Cc1c(OC)oc(CO)c(C(=O)OC)c1=O [Compound 21] | 15.1 µM | 17.5 µM | 17.3 µM | 11.1 µM | 20 µM | 17.6 µM | 16.6 µM | 14.9 µM | 18.4 µM | 12.1 µM | 19.5 µM | 8.73 µM | 17.8 µM | 12.2 µM | 4.93 µM | 16.6 µM | 18.7 µM | 15.7 µM | 18.2 µM | 17.4 µM | GI50 [12]: 14.2 µM
3 | C=C1CCC2C(C)(CCC=C(C)C)C(O)CCC2(C)C1Cc1c(OC)oc(CO)c(C)c1=O (centres unmarked) [Compound 12] | 9.93 µM | 15 µM | 12.6 µM | 1.95 µM | 14.1 µM |  |  |  | 11.5 µM |  | 12.3 µM | 1.46 µM | 18.4 µM |  |  | 19.5 µM | 13.3 µM | 11.8 µM | 15.7 µM | 12.6 µM | Log GI50 ([15]; inhibitor, Log GI50, 48 h): -4.976 M; Log GI50 [6, 22]: -5.533 M; Log GI50 [7, 22]: -7.063 M; Log GI50 [16, 22]: -7.363 M; Log GI50 [8, 22]: -5.304 M; Log GI50 [10, 22]: -7.132 M
4 | C=C1CCC2C(C)(CCC=C(C)C)C(O)CCC2(C)C1Cc1c(OC)oc(C)c(C(=O)OC)c1=O (centres unmarked) [Compound 14] | 11.9 µM | 15 µM | 13.6 µM | 2.61 µM | 14.6 µM | 10.2 µM | 0.289 µM | 10.2 µM | 12.4 µM | 0.0735 µM | 12.8 µM | 1.54 µM | 20.1 µM | 10.9 µM | 0.0942 µM | 18.6 µM | 14.7 µM | 11.8 µM | 16.7 µM | 13.2 µM | GI50 [12]: 2.4 µM
5 | C=C1CCC2C(C)(CC(=O)C=C(C)C)C(O)CCC2(C)C1Cc1c(OC)oc(CO)c(C)c1=O (centres unmarked) [Compound 19] | 52.6 µM | 69.7 µM | 83.2 µM | 11.9 µM | 75.3 µM | 52.8 µM | 9.98 µM | 33.3 µM | 65.8 µM | 6 µM | 69.5 µM | 12.4 µM | 53.8 µM | 14.8 µM | 6.52 µM |  | 36.2 µM | 42.9 µM |  | 46 µM | GI50 [12]: 25.4 µM
6 | C=C1CCC2C(C)(CCC=C(C)C)C(O)CCC2(C)C1Cc1c(OC)oc(C)c(C)c1=O (centres unmarked) [Compound 11] | 9.06 µM | 22.8 µM |  |  | 24.9 µM | 1.22 µM | 0.199 µM | 11.5 µM |  | 0.0865 µM | 14 µM | 1.95 µM | 27.8 µM | 11 µM | 0.0565 µM | 42.4 µM | 21.9 µM | 16.5 µM | 36.7 µM | 13.6 µM | GI50 [12]: 1.88 µM
7 | C=C1CCC2C(C)(CCC=C(C)C)C(O)CCC2(C)C1Cc1c(OC)oc(CO)c(C(=O)OC)c1=O (centres unmarked) [Compound 13] | 15.5 µM | 19.9 µM | 16.3 µM | 10.9 µM | 21.9 µM | 18.5 µM | 16.3 µM | 13.9 µM | 19.4 µM | 11.2 µM | 20.2 µM | 6.85 µM | 18.8 µM | 12 µM | 5.89 µM | 17.3 µM | 17.3 µM | 15.2 µM | 17.7 µM | 17.9 µM | GI50 [12]: 13.8 µM
8 | C=C1CC[C@@H]2[C@](C)(CC[C@H]3O[C@H](C=C(C)C)C[C@@]23C)[C@@H]1Cc1c(OC)oc(CO)c(C)c1=O [Compound 20] | 11.9 µM | 13.8 µM | 13.3 µM |  | 14.3 µM | 10.1 µM | 0.0893 µM | 12.2 µM | 12.3 µM | 0.0811 µM | 12.7 µM |  | 16.4 µM | 11.1 µM | 0.0476 µM | 16.4 µM | 14 µM | 12.7 µM | 15.9 µM | 14.6 µM | 
9 | C=C1CC[C@H]2[C@]3(C)C[C@@H](C=C(C)C)O[C@H]3CC[C@]2(C)[C@@H]1Cc1c(OC)oc(CO)c(C)c1=O [Compound 17] | 12.2 µM | 14.3 µM | 12.1 µM | 10.8 µM | 15.2 µM | 0.942 µM | 0.713 µM | 12.8 µM | 12.2 µM | 0.0916 µM | 13.2 µM | 10.5 µM | 16.9 µM | 10.8 µM | 0.0701 µM | 15.5 µM | 14.2 µM | 13.2 µM | 14 µM | 14.3 µM | 
10 | C=C1CC[C@@H]2[C@](C)(CC[C@H]3O[C@H](C=C(C)C)C[C@@]23C)[C@@H]1Cc1c(OC)oc(C)c(C)c1=O [Compound 22, O-methylated higginsianin A] | 2.77 µM | 11.6 µM | 10.6 µM | 0.729 µM | 11 µM |  | 0.224 µM |  | 10.5 µM | 0.0807 µM | 8.18 µM | 0.478 µM | 10 µM | 2.33 µM | 0.0601 µM | 13.4 µM | 9.75 µM |  | 8.85 µM | 7.66 µM | GI50 [12]: 1.5 µM
